Holding throughout (assay): growth of human tumour cells (NCI), 48 h
The test system of assay [1] is HOP-92.
Assay [2] relates to SF-539.
The subject of assay [3] is MDA-MB-231.
Assay [4] has as its system MDA-N.
For assay [5], the system named is RXF 393.
Assay [6] deals with SK-MEL-2.
The subject of assay [7] is T47D.
For assay [8], the system named is MDA-MB-435.
Assay [9] relates to SF-268.
For assay [10], the system named is HOP-62.
Assay [11] deals with K562.
Assay [12] concerns ACHN.
Assay [13] deals with OVCAR-5.
Assay [14] has as its system SK-MEL-5.
In assay [15] the test system is KM12.
The subject of assay [16] is SW-620.
In assay [17] the test system is UACC-257.
Assay [18] has as its system UO-31.
The test system of assay [19] is BT-549.

Each structure is given as a SMILES string.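 Compound exposure: 48 hours, 5 concentrations, 96-well plates. Abbreviation: GI50, concentration required for 50% inhibition of growth.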 Activity calls are given as the source filed them. No stated cut-off is given here; in the data, active = GI50 up to about 1.1 µM and inactive = higher.

On to `CCOC(=O)/C(=C\NC(=S)Nc1ccc(OCC)cc1)C(=O)c1ccccc1`, for which the GI50 is 8.26 µM (inactive) in assay [1]; > 100 µM (inactive) in assay [2]; > 100 µM (inactive) in assay [3]; > 100 µM (inactive) in [4]; > 100 µM (inactive) in assay [5]; > 100 µM (inactive) in [6]. The GI50 was 24 µM (inactive) in assay [7]; > 100 µM (inactive) in assay [8]; > 100 µM (inactive) in [9]; > 100 µM (inactive) in assay [10]; > 100 µM (inactive) in assay [11]; > 100 µM (inactive) in assay [12]. Besides, the GI50 in [13], in assay [14], in [15], in assay [16] and in assay [17] was > 100 µM (inactive) each time.
As to `CN(C)c1n/c(=N/Cc2ccccn2)ss1`, the GI50 in [1] is > 10 µM (inactive); in [2] it was > 10 µM (inactive); in assay [18], > 10 µM (inactive); in assay [3], > 10 µM (inactive); in [4], > 10 µM (inactive); in assay [5] it was > 8.79 µM (inactive). For the same molecule, the GI50 in [7] is > 10 µM (inactive); in assay [8], > 10 µM (inactive); in assay [9] it was > 10 µM (inactive); in [10], > 10 µM (inactive); in assay [11] it was 2.51 µM (inactive); in assay [12] it was > 10 µM (inactive). For the same molecule, the GI50 was 7.38 µM (inactive) in assay [13]; > 10 µM (inactive) in [14]; > 9.57 µM (inactive) in assay [15]; > 6.4 µM (inactive) in assay [16]; > 10 µM (inactive) in assay [17].
Take `NC(=O)c1nnsc1NC=O`: the GI50 in assay [1] was 75 µM (inactive); in [18], > 100 µM (inactive); in assay [3], > 100 µM (inactive); in assay [4] it was > 100 µM (inactive); in [5], > 100 µM (inactive); in assay [6], > 100 µM (inactive). Besides, the GI50 in assay [7], in [8], in assay [9], in assay [10], in [11] and in assay [12] was > 100 µM (inactive) each time. The GI50 in assay [13], in [14], in assay [15], in assay [16] and in assay [17] was > 100 µM (inactive) each time.
In the case of `C/C(=N\NC(=S)N1CCCCCC1)c1cccc2cccnc12`, the GI50 was 11.7 µM (inactive) in assay [1]; 0.845 µM (active) in assay [2]; 1.94 µM (inactive) in assay [18]; 2.12 µM (inactive) in assay [3]; > 26.4 µM (inactive) in assay [5]; 19.5 µM (inactive) in assay [6]. Also, the GI50 in assay [7] is 0.966 µM (active); in assay [8] it was 1.71 µM (inactive); in [9], 4.29 µM (inactive); in assay [10], 1.15 µM (inactive); in assay [19] it was 16 µM (inactive); in [11], 0.131 µM (active). Besides, the GI50 in [12] is 0.375 µM (active); in [13], > 19.9 µM (inactive); in [15] it was 1.42 µM (inactive); in [16] it was 1.55 µM (inactive); in assay [17] it was 2.58 µM (inactive).
For the molecule `CNc1ccccc1S(=O)(=O)c1ccccc1[N+](=O)[O-]`, the GI50 is > 100 µM (inactive) in assay [2]; 43.6 µM (inactive) in assay [18]; > 100 µM (inactive) in assay [3]; > 100 µM (inactive) in [5]; 88.3 µM (inactive) in assay [6]; 71.1 µM (inactive) in [7]. Besides, the GI50 was 38.2 µM (inactive) in assay [8]; > 100 µM (inactive) in assay [9]; > 100 µM (inactive) in assay [10]; 23.6 µM (inactive) in assay [19]; 42.6 µM (inactive) in assay [11]; 56.6 µM (inactive) in assay [12]. The GI50 in assay [13] was > 100 µM (inactive); in assay [14] it was 23 µM (inactive); in [15], > 100 µM (inactive); in assay [16], > 100 µM (inactive).
For the molecule `CC(=O)OC12c3ccccc3-c3ccccc3C1C(C(=O)O)C2(Cl)C(=O)O` (stereo not given), the GI50 in assay [1], in assay [2], in assay [18], in assay [3], in assay [4] and in assay [5] was > 10 µM (inactive) in each case. Also, the GI50 in [6], in assay [7], in assay [8], in [9], in [10] and in [11] was > 10 µM (inactive) in each case. Besides, the GI50 in assay [12], in [13], in assay [14], in [15], in [16] and in assay [17] was > 10 µM (inactive) throughout.
With `O=C(NN1C(=O)C(Cl)C1c1ccc(Cl)cc1)c1c(Cl)c(Cl)c(Cl)c(Cl)c1-c1nc2ccccc2[nH]1` (stereo not given), the GI50 in assay [1] is 13.5 µM (inactive); in assay [2] it was 32.4 µM (inactive); in assay [18], 22.6 µM (inactive); in [5] it was 2.23 µM (inactive); in [6] it was 21.8 µM (inactive); in assay [7] it was < 0.01 µM (active). For the same molecule, the GI50 is 20.1 µM (inactive) in assay [8]; 25.8 µM (inactive) in assay [9]; 40.2 µM (inactive) in [10]; 24.4 µM (inactive) in assay [19]; 20.1 µM (inactive) in assay [11]; 18.9 µM (inactive) in assay [12]. Besides, the GI50 in assay [13] is 37.2 µM (inactive); in [14] it was 26.4 µM (inactive); in [15] it was 31.4 µM (inactive); in assay [16] it was 23.1 µM (inactive); in [17], 25.2 µM (inactive).
On to `Oc1cccc(-c2cc(=S)ss2)c1`, for which the GI50 in assay [1] is 13.9 µM (inactive); in assay [2], 19.5 µM (inactive); in [18], 14.3 µM (inactive); in [3] it was 14.3 µM (inactive); in assay [5] it was 18 µM (inactive); in [6] it was 15.6 µM (inactive). Further, the GI50 was 20.5 µM (inactive) in assay [8]; 16.9 µM (inactive) in [9]; 17.6 µM (inactive) in assay [10]; 16.7 µM (inactive) in [19]; 8.57 µM (inactive) in assay [11]; 15.7 µM (inactive) in assay [12]. In addition, the GI50 in [13] was 15.9 µM (inactive); in [14], 5.97 µM (inactive); in assay [15], 18.6 µM (inactive); in assay [16], 18.5 µM (inactive); in assay [17], 14.9 µM (inactive).
Turning to `CCOC(=O)N1CCC2(CC1)C[C@@](C(C)=O)(c1ccccc1)C(C)O2` (stereo not given in full), the GI50 was 61.1 µM (inactive) in assay [1]; > 100 µM (inactive) in [2]; > 100 µM (inactive) in assay [18]; > 100 µM (inactive) in [3]; 85.1 µM (inactive) in [4]; > 100 µM (inactive) in [6]. Also, the GI50 in assay [7] is 17 µM (inactive); in assay [8], > 100 µM (inactive); in assay [9] it was > 100 µM (inactive); in [10], > 100 µM (inactive); in assay [11], > 100 µM (inactive); in [12], > 100 µM (inactive). Also, the GI50 in assay [13], in [14], in assay [15], in assay [16] and in assay [17] was > 100 µM (inactive) in each case.
For `C/C(=C\COP(=O)(O)CP(=O)(O)O)CC/C=C(\C)CNc1ccccc1`, the GI50 in assay [2], in assay [18], in assay [3], in assay [5], in [6] and in [7] was > 100 µM (inactive) in each case. Further, the GI50 in [8] was > 100 µM (inactive); in [9], > 100 µM (inactive); in assay [10], > 100 µM (inactive); in assay [19] it was 14.6 µM (inactive); in assay [11], > 100 µM (inactive); in assay [12] it was > 100 µM (inactive). Also, the GI50 in [13], in assay [14], in [15], in assay [16] and in assay [17] was > 100 µM (inactive) each time.
`O=C(/C=C/c1ccc2ccccc2c1)NCc1ccc(C(=O)NCCc2ccccc2)cc1`: the GI50 in assay [1], in assay [18], in assay [3], in assay [4], in [5] and in assay [6] was > 100 µM (inactive) in each case. Also, the GI50 in assay [7] was 65.5 µM (inactive); in [8], > 100 µM (inactive); in assay [9] it was > 100 µM (inactive); in assay [10], > 100 µM (inactive); in [11], 52 µM (inactive); in [12] it was > 100 µM (inactive). Further, the GI50 in [13], in assay [14], in assay [15], in assay [16] and in assay [17] was > 100 µM (inactive) in each case.
For the molecule `O=C(COc1ccc(Br)cc1Br)N1N=C(c2ccc([N+](=O)[O-])o2)CC1(O)c1ccccc1` (stereo not given), the GI50 in [2] is > 10 µM (inactive); in assay [18], 5.36 µM (inactive); in assay [5], 2.53 µM (inactive); in [6], 12.5 µM (inactive); in assay [9], 12.3 µM (inactive); in assay [10], 13.2 µM (inactive). The GI50 was 4.7 µM (inactive) in assay [11]; 15.3 µM (inactive) in assay [12]; 29.3 µM (inactive) in [13]; 5.45 µM (inactive) in assay [14]; 17.4 µM (inactive) in [15]; 13.1 µM (inactive) in [16]. Besides, the GI50 in assay [17] is 23.1 µM (inactive).

For the origin of these results see ChEMBL document CHEMBL1201862, “PubChem BioAssay data set” (2004).
